# According to US20060069132A1, “Azolecarboxamide herbicides” (priority 2004, published 2006):
# Assays:
# barnyardgrass [1] = assay: Test A pre-/postemergence herbicide test; assay type: in vivo, Echinochloa crus-galli
# How it was run: (§1)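 Pre: seeded sandy loam, directed soil spray, compound in non-phytotoxic solvent + surfactant. Post: 1–2-leaf plants (2–10 cm), sprayed to runoff. Greenhouse ~10 d; visual injury vs untreated, 0–100 scale.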
# large crabgrass [2] = assay: Test A pre-/postemergence herbicide test; assay type: in vivo, Digitaria sanguinalis
# How it was run: as §1
# giant foxtail [3] = assay: Test A pre-/postemergence herbicide test; assay type: in vivo, Setaria faberi
# How it was run: as §1
# morningglory [4] = assay: Test A pre-/postemergence herbicide test; assay type: in vivo, Ipomoea spp.
# How it was run: as §1
# redroot pigweed = assay: Test A pre-/postemergence herbicide test; assay type: in vivo, Amaranthus retroflexus
# How it was run: as §1
# velvetleaf [5] = assay: Test A pre-/postemergence herbicide test; assay type: in vivo, Abutilon theophrasti
# How it was run: as §1
# barnyardgrass [6] = assay: Test B pre-/postemergence herbicide test; assay type: in vivo, Echinochloa crus-galli; conditions: for Plant response rating, Barnyardgrass: preemergence; for Barnyardgrass plant response rating: postemergence, visual rating, scale 0 (no effect) to 100 (complete control)
# How it was run: (§2)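 Test chemicals in a non-phytotoxic solvent mixture with surfactant were applied preemergence to seeded species and postemergence to plants 2-18 cm tall (1- to 4-leaf stage); rice and barnyardgrass were also tested in a flooded paddy at the 2-leaf stage. Visual rating versus controls after 13-15 days in greenhouse, scale 0 (no effect) to 100 (complete control).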
# Surinam grass = assay: Test B pre-/postemergence herbicide test; assay type: in vivo, Urochloa decumbens; conditions: for Plant response rating, Surinam Grass: preemergence; for Surinam Grass plant response rating: postemergence, visual rating, scale 0 (no effect) to 100 (complete control)
# How it was run: (§3)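 Response was scored visually 13 to 15 days after treatment against untreated greenhouse controls, 0 meaning no effect and 100 complete control. Formulations (solvent mixture plus surfactant) went onto soil after planting, onto foliage of 1- to 4-leaf plants, and onto 2-leaf plants in a flooded paddy set including rice and barnyardgrass.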
# cocklebur = assay: Test B pre-/postemergence herbicide test; assay type: in vivo, Xanthium strumarium; conditions: for Plant response rating, Cocklebur: preemergence; for Cocklebur plant response rating: postemergence, visual rating, scale 0 (no effect) to 100 (complete control)
# How it was run: as §2
# corn = assay: Test B pre-/postemergence herbicide test; assay type: in vivo, Zea mays; conditions: preemergence
# How it was run: as §3
# large crabgrass [7] = assay: Test B pre-/postemergence herbicide test; assay type: in vivo, Digitaria sanguinalis; conditions: for Plant response rating, Crabgrass, Large: preemergence; for Crabgrass, Large plant response rating: postemergence, visual rating, scale 0 (no effect) to 100 (complete control)
# How it was run: as §3
# giant foxtail [8] = assay: Test B pre-/postemergence herbicide test; assay type: in vivo, Setaria faberi; conditions: for Plant response rating, Foxtail, Giant: preemergence; for Foxtail, Giant plant response rating: postemergence, visual rating, scale 0 (no effect) to 100 (complete control)
# How it was run: as §3
# lambsquarters = assay: Test B pre-/postemergence herbicide test; assay type: in vivo, Chenopodium album; conditions: for Plant response rating, Lambsquarters: preemergence; for Lambsquarters plant response rating: postemergence, visual rating, scale 0 (no effect) to 100 (complete control)
# How it was run: as §3
# morningglory [9] = assay: Test B pre-/postemergence herbicide test; assay type: in vivo, Ipomoea coccinea; conditions: preemergence, 125 g ai/ha; 0 to 100 scale, 0 is no effect, 100 is complete control
# How it was run: as §2
# pigweed = assay: Test B pre-/postemergence herbicide test; assay type: in vivo, Amaranthus retroflexus; conditions: for Plant response rating, Pigweed: preemergence; for Pigweed plant response rating: postemergence, visual rating, scale 0 (no effect) to 100 (complete control)
# How it was run: as §3
# rice [10] = assay: Test B pre-/postemergence herbicide test; assay type: in vivo, Oryza sativa; conditions: preemergence, 125 g ai/ha; 0 to 100 scale, 0 is no effect, 100 is complete control
# How it was run: as §3
# velvetleaf [11] = assay: Test B pre-/postemergence herbicide test; assay type: in vivo, Abutilon theophrasti; conditions: for Plant response rating, Velvetleaf: preemergence; for Velvetleaf plant response rating: postemergence, visual rating, scale 0 (no effect) to 100 (complete control)
# How it was run: as §3
# blackgrass = assay: Test B postemergence herbicide test; assay type: in vivo, Alopecurus myosuroides; conditions: postemergence, visual rating, scale 0 (no effect) to 100 (complete control)
# How it was run: (§4)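 Paddy species grown to the 2-leaf stage under flooding; blackgrass sprayed postemergence at 2–18 cm (1- to 4-leaf stage). Plants kept in a greenhouse for 13 to 15 days, then visually rated against controls on 0 (no effect) to 100 (complete control).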
# wheat = assay: Test B postemergence herbicide test; assay type: in vivo, Triticum aestivum; design: key to Wheat plant response rating: 0 = no effect, 100 = complete control; conditions: postemergence, visual rating, scale 0 (no effect) to 100 (complete control)
# How it was run: (§5)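 Read-out: visual comparison with controls, scored 0 to 100, where 100 means complete control and 0 no effect. Formulated chemicals were applied postemergence to plants 2–18 cm tall (1- to 4-leaf), or to flooded-paddy plants at the 2-leaf stage, then held 13 to 15 days under glass.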
# wild oat = assay: Test B postemergence herbicide test; assay type: in vivo, Avena fatua; conditions: postemergence, visual rating, scale 0 (no effect) to 100 (complete control)
# How it was run: as §5
# rice [12] = assay: Test B flooded paddy test; assay type: in vivo, Oryza sativa; conditions: 1000 g ai/ha, visual rating, scale 0 to 100 (0 no effect, 100 complete control), 13 to 15 days
# How it was run: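 Postemergence plants were sprayed with formulated test chemicals at 2 to 18 cm height (1- to 4-leaf stage); paddy species were grown to the 2-leaf stage. After 13 to 15 days in a greenhouse, injury was rated visually against untreated controls on a 0–100 scale (0 = no effect, 100 = complete control).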
# [13] = test system: small flower umbrella sedge; assay: Test B flooded paddy test; assay type: in vivo, Cyperus difformis; conditions: 1000 g ai/ha, visual rating, scale 0 to 100 (0 no effect, 100 complete control), 13 to 15 days
# How it was run: as §4
# ducksalad = assay: Test B flooded paddy test; assay type: in vivo, Heteranthera limosa; conditions: 1000 g ai/ha, visual rating, scale 0 to 100 (0 no effect, 100 complete control), 13 to 15 days
# How it was run: as §4
# barnyardgrass [14] = assay: Test B flooded paddy test; assay type: in vivo, Echinochloa crus-galli; conditions: 1000 g ai/ha, visual rating, scale 0 to 100 (0 no effect, 100 complete control), 13 to 15 days
# How it was run: as §4
# [15] = Postemergence, 500 g ai/ha, 0 to 100 scale, 0 no effect, 100 complete control
# [16] = Postemergence, 2000 g ai/ha, 0 to 100 scale, 0 no effect, 100 complete control
# [17] = Preemergence, 500 g ai/ha, visual rating, 0 to 100 scale (0 no effect, 100 complete control)
# [18] = Preemergence, 2000 g ai/ha, visual rating, 0 to 100 scale (0 no effect, 100 complete control)
# [19] = preemergence, 500 g ai/ha, visual injury, 0 to 100 scale (0 no effect, 100 complete control)
# [20] = 500 g ai/ha, visual rating 0-100, 0 no effect, 100 complete control
# [21] = 125 g ai/ha, 0 to 100 scale, 0 is no effect, 100 is complete control
smiles,measurement,setting,value
CCC(C)c1cc(C(=O)Nc2cccc(C(C)=NO)c2)n(C)n1 (stereo not shown) [Compound 120],Barnyardgrass plant response rating,barnyardgrass [1]; [15],45
same,"Plant response rating, Barnyardgrass",barnyardgrass [1]; [16],65
same,Barnyardgrass plant response rating,barnyardgrass [1]; [17],30
same,Barnyardgrass plant response rating,barnyardgrass [1]; [18],85
same,"Crabgrass, Large plant response rating",large crabgrass [2]; [15],50
same,"Plant response rating, Crabgrass, Large",large crabgrass [2]; [16],65
same,"Crabgrass, Large plant response rating",large crabgrass [2]; [17],45
same,"Crabgrass, Large plant response rating",large crabgrass [2]; [18],75
same,"Foxtail, Giant plant response rating",giant foxtail [3]; [15],20
same,"Plant response rating, Foxtail, Giant",giant foxtail [3]; [16],20
same,"Foxtail, Giant plant response rating",giant foxtail [3]; [17],25
same,"Foxtail, Giant plant response rating",giant foxtail [3]; [18],55
same,Morningglory plant response rating,morningglory [4]; [15],20
same,"Plant response rating, Morningglory",morningglory [4]; [16],40
same,Morningglory plant response rating,morningglory [4]; [17],20
same,Morningglory plant response rating,morningglory [4]; [18],55
same,Pigweed plant response rating,redroot pigweed; [15],50
same,"Plant response rating, Pigweed",redroot pigweed; [16],85
same,Pigweed plant response rating,redroot pigweed; [18],50
same,Pigweed plant response rating,redroot pigweed; [19],20
same,Velvetleaf plant response rating,velvetleaf [5]; [15],25
same,"Plant response rating, Velvetleaf",velvetleaf [5]; [16],30
same,Velvetleaf plant response rating,velvetleaf [5]; [18],40
same,Velvetleaf plant response rating,velvetleaf [5]; [19],20
same,"Plant response rating, Barnyardgrass",barnyardgrass [6]; [20],90
same,Barnyardgrass plant response rating,barnyardgrass [6]; 125 g ai/ha,10
same,Barnyardgrass plant response rating,barnyardgrass [6]; 500 g ai/ha,10
same,"Plant response rating, Barnyardgrass",barnyardgrass [6]; [21],0
same,"Plant response rating, Surinam Grass",Surinam grass; [20],0
same,Surinam Grass plant response rating,Surinam grass; 125 g ai/ha,20
same,Surinam Grass plant response rating,Surinam grass; 500 g ai/ha,50
same,"Plant response rating, Surinam Grass",Surinam grass; [21],0
same,"Plant response rating, Cocklebur",cocklebur; [20],0
same,Cocklebur plant response rating,cocklebur; 125 g ai/ha,30
same,Cocklebur plant response rating,cocklebur; 500 g ai/ha,60
same,"Plant response rating, Cocklebur",cocklebur; [21],0
same,"Plant response rating, Corn",corn; [20],0
same,"Plant response rating, Corn",corn; [21],0
same,"Plant response rating, Crabgrass, Large",large crabgrass [7]; [20],90
same,"Crabgrass, Large plant response rating",large crabgrass [7]; 125 g ai/ha,10
same,"Crabgrass, Large plant response rating",large crabgrass [7]; 500 g ai/ha,20
same,"Plant response rating, Crabgrass, Large",large crabgrass [7]; [21],70
same,"Plant response rating, Foxtail, Giant",giant foxtail [8]; [20],70
same,"Foxtail, Giant plant response rating",giant foxtail [8]; 125 g ai/ha,10
same,"Foxtail, Giant plant response rating",giant foxtail [8]; 500 g ai/ha,10
same,"Plant response rating, Foxtail, Giant",giant foxtail [8]; [21],0
same,"Plant response rating, Lambsquarters",lambsquarters; [20],20
same,Lambsquarters plant response rating,lambsquarters; 125 g ai/ha,0
same,Lambsquarters plant response rating,lambsquarters; 500 g ai/ha,50
same,"Plant response rating, Lambsquarters",lambsquarters; [21],0
same,"Plant response rating, Morningglory",morningglory [9],10
same,"Plant response rating, Pigweed",pigweed; [20],30
same,Pigweed plant response rating,pigweed; 125 g ai/ha,10
same,Pigweed plant response rating,pigweed; 500 g ai/ha,70
same,"Plant response rating, Pigweed",pigweed; [21],0
same,"Plant response rating, Rice",rice [10],0
same,"Plant response rating, Velvetleaf",velvetleaf [11]; [20],40
same,Velvetleaf plant response rating,velvetleaf [11]; 125 g ai/ha,10
same,Velvetleaf plant response rating,velvetleaf [11]; 500 g ai/ha,30
same,"Plant response rating, Velvetleaf",velvetleaf [11]; [21],20
same,Blackgrass plant response rating,blackgrass; 125 g ai/ha,0
same,Blackgrass plant response rating,blackgrass; 500 g ai/ha,10
same,Wheat plant response rating,wheat; 125 g ai/ha,10
same,Wheat plant response rating,wheat; 500 g ai/ha,10
same,"Oat, Wild plant response rating",wild oat; 125 g ai/ha,10
same,"Oat, Wild plant response rating",wild oat; 500 g ai/ha,10
same,Rice plant response rating,rice [12],0
same,"Sedge, Umbrella plant response rating",[13],10
same,Ducksalad plant response rating,ducksalad,70
same,Barnyardgrass plant response rating,barnyardgrass [14],30
